According to US20160340683A1, “NANOCARRIER BASED PLANT TRANSFECTION AND TRANSDUCTION” (HER MAJESTY THE QUEEN IN RIGHT OF CANADA AS REPRESENTED BY …, priority 2007, published 2016):
“Also recorded” adds a separate entry of the source. fluorescein = fluorescein label at the N-terminus

What was measured:
immature embryos [1] = assay: Fluorimetry analysis of relative fluorescence uptake by embryos; format: cell-based, Triticale cv AC Alta; details: permeabilized and non-permeabilized embryos
Experimental: (§1) The embryos were isolated from spikes two weeks post-anthesis (scutellum diameter 1-2 mm). The immature seeds were surface sterilized with 70% ethanol for 30 s followed by treatment with 10% hypochlorite (Chlorex) and a drop of Tween 20, 3 min. Four washings of 1 min each were given with sterile water. The embryos were hand dissected under sterile conditions. Isolated embryos were placed on GEM medium (Eudes et al, 2003) for 24 h in dark at room temperature prior to CPP translocation studies.
Isolated and sterilized embryos (20-25) were imbibed in total volume of 420 μl permeabilization buffer (15 mM sodium chloride, 1.5 mM sodium citrate, pH 7.1) containing cellular permeabilization agent toluene/ethanol (1:4) in 1:20 ratio with permeabilization buffer. To this 2.1 μl of 1 mM fluoresceinated CPP was added to give a final concentration of 5 μM. […] Embryos were washed two times with permeabilization buffer and subjected either for fluorescence microscopy or spectrofluorimetric analysis.
For fluorimetric analysis, the embryos were treated with 500 μl of 1% Triton X-100 (prepared in permeabilization buffer), 30 min, at 4° C. The supernatant was collected in a fresh tube and relative fluorescence uptake by the embryos with different CPPs was estimated by fluorimeter (Biorad, Versafluor, USA Excitation 490/Emission 520).

[2] = test system: root tip, leaf tip, leaf base and coleoptile; details: 5 μM fluorescently labeled peptide
Experimental: Triticale seeds were washed with detergent and grown on moist cotton for one week. The root tip, leaf tip, leaf base and coleoptile were excised and incubated with 5 μM of fluorescently labeled pVEC, scrambled pVEC and transportan.

immature embryos [3] = assay: Translocation of fluoresceinated CPPs in zygotic embryos, fluorescence microscopy; format: cell-based, Triticale cv AC Alta
Experimental: as §1
Isolated and sterilized embryos (20-25) were imbibed in total volume of 420 μl permeabilization buffer (15 mM sodium chloride, 1.5 mM sodium citrate, pH 7.1) containing cellular permeabilization agent toluene/ethanol (1:4) in 1:20 ratio with permeabilization buffer. To this 2.1 μl of 1 mM fluoresceinated CPP was added to give a final concentration of 5 μM. In negative controls, the embryos were treated with FITC-dextran sulphate or M-Tat. The embryos were incubated in the permeabilization mix for 1 h in dark at room temperature, followed by two washings with permeabilization buffer. The embryos were then treated with trypsin:EDTA (0.25% solution, Sigma-Aldrich) in 1:2 ratio with permeabilization buffer for 5 min at room temperature to remove free peptide molecules. Embryos were washed two times with permeabilization buffer and subjected either for fluorescence microscopy or spectrofluorimetric analysis.

isolated microspores = assay: Uptake of fluoresceinated Tat by isolated microspores; format: cell-based; details: no permeabilization
Experimental: However, permeabilization is not necessary for all cell types. FIG. 2 illustrates the uptake of fluoresceinated Tat by isolated microspores.
Isolated microspores were prepared as described by Amundsen and Eudes, 2005.

Triticale microspores = assay: DNA-protein co-delivery in microspores, GUS histochemical assay of embryos; format: cell-based; details: 2 months after transfection
Experimental: Triticale tillers for microspore isolation were kept in the refrigerator (4° C.) for 3 weeks with their bases in distilled water and their heads wrapped in aluminum foil. After 3 weeks±3 days, the mid to late uninucleate microspore stage was verified from a median floret using acetocarmine staining prior to extraction. Isolated microspore was carried in Triticale as published in Eudes and Amundsen (2005) for obtaining purified microspore suspension adjusted to 2.5×10^5 cells per ml of NPB99 medium.
The plasmid (pAct-1 GUS, ˜7.2 kb) was linearized with PstI restriction enzyme and DNA was purified by PCR product purification kit (QIAquick, Qiagen, USA). The GUS DNA was delivered following 7 different treatments (T). […]

[4] = test system: isolated microspores of Triticale (variety Sunray); assay: CPP delivery of GUS enzyme into isolated microspores, GUS staining; format: cell-based; details: GUS enzyme cargo:CPP 1:4, 1 hour at 37° C., three repeats
Experimental: Triticale line Sunray grown in a growth cabinet with a photoperiod of 19 h day (intensity 300 μE m-2 s-1), and temperature 18-15° C. (day-night) with a relative humidity at about 70% was used as the donor plant material. The plants were fertilized every 2 weeks (20-20-20, 200 ppm) and treated with 2.5 ml I-1 Tilt™ (propiconazole, Syngenta) during the tillering stage and Intercept™ (0.004 g per litre of soil, Imidacloprid, Bayer) once sufficient root development was established. The first 10 tillers from each pot were harvested when the spike was at 3-4 cm, depending on the crop, from emergence from the boot. These tillers (to be used for microspore isolation) were subjected to pre-treatment in a refrigerator (4° C.) for 21 days with their bases in distilled water and their heads wrapped in aluminum foil. After 21±3 days of pre-treatment, the spikes were excised from their tillers and after an evaluation of their general appearance, only the most homogenous spikes were used. After confirming microspores at mid to bi-nucleate stage from a median floret, using acetocarmine staining, the tillers were processed for extraction.
Awns were removed with scissors in a laminar flow hood. Eight-fourteen spikes were used for microspore isolation. They were sterilized with 10% bleach (5.25% sodium hypochlorite) for 3 min followed by rinsing in sterile double distilled water four times of 1 min each with constant agitation. Outer glumes were removed and florets from all the spikes were aseptically dissected and transferred to a sterile and refrigerated 110 ml Warring blender cup (VWR international, #58983-093) containing 50 ml filter sterilized extraction buffer at 4° C. Florets were then blended twice for 7 s at low speed (18000 rpm). The slurry was then poured through a 1 mm sieve followed by pouring through a 100 μm sterile mesh (VWR International, #CA21008-950) into two 50 ml centrifuge tubes (25 ml each). The blender cup was rinsed with 50 ml extraction buffer at 4° C. and poured through the 100 μm mesh and was added to the first aliquot in the 50 ml tubes. The cells were then pelleted by centrifugation (100×g for 5 min at 4° C.) using a swinging bucket rotor. After pouring off the supernatant, the microspore-containing pellets were pooled together in one 50 ml tube and re-suspended in 50 ml cold extraction buffer. The cells were pelleted again with centrifugation (100×g for 5 min at 4° C.), the supernatant poured off and the pellet was transferred to a 15 ml tube. After re-suspending the pellet in CIMC Wash Buffer supplemented with 10 microM SS-31 peptide, it was subjected to wash and centrifugation using the above conditions. The supernatant was removed and the pellet was re-suspended in CIMC Wash buffer and centrifugation was repeated as above. The pellet was then suspended in 7 mL of 20% maltose at 4° C., layered with 1 mL of CIMC wash buffer and was centrifuged at 100 g for 13 min at 4° C. A band of microspores formed at the interface was collected in a new 15 ml tube. The cells were diluted with CIMC wash solution and subsequently collected by centrifugation at 150 g for 5 min. The supernatant was removed and the cells were finally suspended in a total volume of 1.4 ml of appropriate solution. After counting the cells using a haemocytometer, aliquots of 100,000 cells in 200 μl volume were prepared in 2 ml microcentrifuge tubes to be ready for transduction.
Peptide stock solutions were made in water at 1 μg/μl concentration. CPP (Nanocarrier) and GUS enzyme (cargo) were first prepared in separate microcentrifuge tubes. A total of 4 μg of CPP was prepared in sterile water to a final volume of 100 μl. Similarly, 1 μg of GUS enzyme was added to sterile water to a final volume of 100 μl. The contents of the two tubes were mixed together giving a ratio of 1:4 protein cargo:CPP. The complex was incubated for 30 min at room temperature (RT). Chariot (PAP1) protein delivering reagent was used as a positive control in the experiments. […]

FI-GWTLNSAGYLLGKINLKALAALAKKIL-amide [Transportan]
Translocation by fluorimetric analysis compared with visual observation (immature embryos [1]): relatively greater translocation
Fluorescence in excised seedling tissues [2]: maximum florescence

FI-RKKRRQRRR-amide (fluorescein-RKKRRQRRR-NH2) [TAT-PTD]
Uptake seen by fluorescence microscopy (FIG. 1) (immature embryos [3]; in the presence of cellular permeabilizing agent (toluene)): most significant uptake; also recorded: distinct layer of accumulation in the scutellum and localized accumulation in the germ area
Uptake seen by fluorescence microscopy (FIG. 1) (immature embryos [3]; without cellular permeabilizing agent): some fluorescence
Uptake of fluoresceinated peptide by isolated microspores (FIG. 2) (isolated microspores): can penetrate into cells

RKKRRQRRRRKKRRQRRR (TAT2) [18 amino acid dimer of the PTD of HIV Tat, reference compound]
Highest numbers of embryos that showed GUS (Triticale microspores): 25.8%
Average Transduction Efficiency [4]: 17.50%
